Earlier results in patent US12269021B2, “Artificial protein catalyst” (Glytech, Inc., priority 2019, dated 2025).

What was measured:
αvβ3 and αvβ5 integrins = conditions: integrins overexpressed on the cancer cell surface
[1] = test system: various cancer cell strains

**Q.** With cRGD as the molecule, how does the integrin inhibition (αvβ3 and αvβ5 integrins) read?
**A.** inhibits

**Q.** For `CC(C)=CCC/C(C)=C/CC/C(C)=C/COc1ccc2ccc(=O)oc2c1` [Umbelliprenin], which cytotoxic activity [1] is on record?
**A.** cytotoxic activity
